# Assay results taken from PMC7297445, “Pharmacokinetic/Pharmacodynamic Determination and Preclinical Pharmacokinetics of the β-Lactamase Inhibitor ETX1317 and Its Orally Available Prodrug ETX0282” (ACS Infectious Diseases, 2020).
# Key:
# [1] = Plasma protein binding; type: in vitro ADME, dog
# Experimental: Plasma protein binding was determined by rapid equilibrium dialysis. Plasma was freshly prepared from blood samples drawn in to EDTA (anticoagulant) containing tubes. Plasma was prepared using a table-top centrifuge and spun per instruction of the tube manufacturer and specifications (Beckton, Dickinson and Company, Franklin Lakes, NJ) and placed on ice prior to use.
# Pooled plasma samples were centrifuged at 2000 rpm (approximately 1400g) for 15 min at 4 °C to remove debris. Approximately 90% of the clear supernatant fraction was transferred to a separate tube. Samples (500 μL) were then spiked with a 100× stock solution 100 μM, 0.5 mM, and 10 mM ETX1317 in DMSO respectively for 1, 5, and 100 μM final concentrations, transferred to the top of the filter chambers, and allowed to equilibrate for 15 min prior to centrifugation. The filtrate tubes were centrifuged at 14000g for 15 min at 4 °C. Next, 50 μL of the filtrate was precipitated with 300 μL of acetonitrile containing 250 ng/mL of carbutamide as the internal standard and the samples were analyzed by LC/MS/MS analysis.
# [2] = Stability in liver microsomes; type: in vitro ADME
# Experimental: Based upon the non-clinical PK data, a range of 60–80% bioavailability and a moderate absorption rate of 0.5–1.0 h^–1 have been considered for humans. In consideration of these predicted parameters, mean percent fT > CT of 1 μg/mL (2× MIC of 0.5 μg/mL) estimates for a 500 mg ETX1317 equiv q12h dose of ETX0282 are summarized in Table S3.
# [3] = tested on: K. pneumoniae ARC4486; assay: Hollow-fiber infection model (HFIM), dose fractionation; type: cell-based; conditions: with CPD
# Experimental: (§1) The PK/PD driver of ETX1317 was assessed in the presence of CPD in both hollow-fiber[28]−[31] and chemostat[32]in vitro infection model systems. In all cases, CPD was administered q12h via a 2 h infusion and eliminated with a 2 h half-life, with the concentration of drug exceeding the MIC (the MIC of CPD in the presence of ETX1317 at a 1:2 ratio) for 50% of the dosing interval for each strain. Representative Emax plots are shown graphically for Escherichia coli ARC2687 in the hollow-fiber model and Klebsiella pneumoniae ARC4420 in the chemostat system (Figure 2). […] This could partially be attributed to the distribution of the concentration ranges utilized for the hollow-fiber infection model (HFIM) where most of the data scatter occurred in the efficacious dose range for lower MIC strains. It is important to note that initial evaluation of K. pneumoniae ARC4420 and ARC5118 was completed in the HFIM but rapid degradation of CPD, presumably through accumulation of β-lactamases in the extra-capillary space of the cartridge precluded a reliable assessment of the PK/PD driver with these strains in this model.[32] […] In both the HFIM and chemostat models the optimum critical threshold of ETX1317 was established through iterative Emax fitting of a range of ETX1317 concentrations from 0.5× to 2× the CPD:ETX1317 MIC value. In the HFIM, %Time > ETX1317 CT of 2× MIC provided the highest correlation to observed activity which appeared to be independent to the apparent intrinsic activity of ETX1317 (as reflected by ETX1317 MICBLI of K. pneumoniae ARC4486 vs ARC4488). […] In both models CPD infused alone mimicked vehicle control as expected with similar growth of +2 to 4 log10 CFU/mL.
# (§2) Enterobacteriaceae isolates E. coli ARC2687 and K. pneumoniae isolates ARC4486, ARC4488, ARC5118, and ARC4420 were prepared for infection from an overnight plate culture. On the day of the experiment, a few colonies of bacteria were inoculated in Mueller Hinton Broth II (MHBII, Sigma-Aldrich, St. Louis, MO) and incubated at 35 °C until reaching log-phase growth, about 1 h. In hollow-fiber studies cell population density is confirmed by turbidimetric assay (OD600) and final dilution is adjusted to deliver approximately 15 mL of bacteria (1 × 10^6 CFU/mL) to the extra-capillary space of the hollow-fiber cartridge (Fibercell Systems, Inc., Frederick, MD). After 1 h, targeted drug concentrations were introduced using a 2 h infusion via a syringe pump (Harvard Apparatus, Holliston, MA). For chemostat experiments approximately 1 mL of bacteria (1 × 10^8 CFU/mL) were introduced to the chemostat reservoir bottle with 100 mL MHBII to dilute bacterial culture and reach a target CFU density of 1 × 10^6 CFU/mL. After 5 min, each chemostat bottle was exposed to targeted drug with a 2 h infusion administered via syringe pump.
# (§3) ETX1317 and CPD were dissolved in MHBII (accounting for potency) and delivered as a 2 h infusion via syringe pump (Harvard Apparatus, Holliston, MA). Solubility and stability were confirmed at room temperature for the experiment. Dose formulation potency was verified by LC/MS/MS.
# (§4) Dose range and dose fractionation were performed in hollow-fiber infection model (HFIM) and chemostat (one-compartment) in vitro infection model. Bacteria treated with media only (growth control) and dose arms spanning a 64-fold exposure range of drug delivered within regimens of q6h, q12h, and q24h were used. E. coli ARC2687 and K. pneumoniae ARC4486 and ARC4488 were completed in the HFIM. K. pneumoniae ARC5118 and ARC4420 were studied in the chemostat system. CPD concentrations were targeted to achieve exposure of ∼50%Time > MIC determined in the presence of ETX1317. Both CPD and ETX1317 were administered via a 2 h infusion from syringe pumps (Harvard Apparatus) to mimic the approximate Cmax following oral absorption observed clinically for CDP. […]
# [4] = tested on: K. pneumoniae ARC4488; assay: as above; type: cell-based; conditions: with CPD
# Experimental: as §1, §2, §3, §4
# [5] = tested on: E. coli ARC2687; assay: as above; type: cell-based; conditions: with CPD
# Experimental: as §1, §2, §3, §4
smiles,measurement,setting,value
CC1=C[C@@H](C(N)=O)N2C[C@@H]1N(O[C@H](F)C(=O)O)C2=O [ETX1317],Proportion unbound,[1]; 1 µM,92%
same,Proportion unbound,[1]; 5 µM,100%
same,Proportion unbound,[1]; 100 µM,81%
same,stability in liver microsomes,[2],Good stability
same,%Time > CT of 1 μg/mL for 1–log10 kill,[3],49%
same,%Time > CT of 1 μg/mL for stasis,[3],37%
same,%Time > CT of 1 μg/mL for 1–log10 kill,[4],47%
same,%Time > CT of 1 μg/mL for stasis,[4],43%
same,%Time > CT of 1 μg/mL for 1–log10 kill,[5],14%
same,%Time > CT of 1 μg/mL for stasis,[5],7%
